Where two headings read alike, the source gives them in different places.
Experiments:
[1] = target: T1, aldosterone synthase (CYP11B2) (Macaca fascicularis, UniProt A0A2K5UPL9); test: Inhibition of aldosterone synthase, cynomolgus adrenal mitochondria, aldosterone quantified by mass spectrometry; format: biochemical, cynomolgus monkey; conditions: 2 μM corticosterone, 90 minutes at 37° C.
T1 construct: employ cynomolgus adrenal gland mitochondria as the source of aldosterone synthase (CYP11B2); from tissue; host or cells: cynomolgus monkey adrenal gland mitochondria
T1 sequence (A0A2K5UPL9 1-503): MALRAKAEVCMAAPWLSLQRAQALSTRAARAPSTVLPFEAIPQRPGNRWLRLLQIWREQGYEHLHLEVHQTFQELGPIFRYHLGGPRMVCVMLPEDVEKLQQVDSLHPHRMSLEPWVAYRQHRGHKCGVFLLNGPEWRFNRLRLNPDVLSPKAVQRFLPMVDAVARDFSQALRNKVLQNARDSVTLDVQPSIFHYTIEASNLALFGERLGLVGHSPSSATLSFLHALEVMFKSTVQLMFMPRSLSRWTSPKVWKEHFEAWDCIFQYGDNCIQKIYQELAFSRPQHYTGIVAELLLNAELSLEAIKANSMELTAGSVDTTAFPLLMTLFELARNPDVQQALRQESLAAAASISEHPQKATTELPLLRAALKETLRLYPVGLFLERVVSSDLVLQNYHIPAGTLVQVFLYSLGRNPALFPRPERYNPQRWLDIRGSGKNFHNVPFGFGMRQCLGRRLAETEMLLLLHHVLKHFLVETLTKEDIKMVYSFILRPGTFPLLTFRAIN
Method: The aldosterone synthase and cortisol synthase inhibition assays employ cynomolgus adrenal gland mitochondria as the source of aldosterone synthase (CYP11B2) and cortisol synthase (CYP11B1). […] One unit of CYP11B2 and CYP11B1 activity in these preparations is defined as the amount of enzyme that generates 1 pmol of product in one hour under the conditions described.
The compounds of the invention may be evaluated for aldosterone synthase inhibition by the following assay:
Assays are performed in 96-well format in a final volume of 60 microL/well, containing 100 mM potassium phosphate, pH 7.4, 1% (v/v) DMSO, and additionally, 2 μM of corticosterone and 50 units of CYP11B2 activity. Reactions are started by the addition of NADPH to 1 mM and allowed to proceed for 90 minutes at 37° C. Reactions are terminated by the addition of 60 μL of MeCN containing an internal standard for mass spectrometry. One hundred microliters are then transferred to a glass filter plate and centrifuged at 570×g for 5 minutes and the filtrate is collected. Reaction product aldosterone is quantified by mass spectrometry. To determine the assay blank value (0% activity), NADPH is omitted from some reactions.
Dose dependent inhibition is quantified by the inclusion of compound at various concentrations. Maximum activity (100%) is defined by reactions containing NADPH, but without compound.

[2] = target: cortisol synthase (CYP11B1) (Macaca fascicularis, UniProt A0A2K5ULY1); test: Inhibition of cortisol synthesis, cynomolgus adrenal mitochondria, 11-deoxycortisol as substrate; format: biochemical, cynomolgus monkey; conditions: 150 units of CYP11B1, 11-deoxycortisol as substrate
Method: The aldosterone synthase and cortisol synthase inhibition assays employ cynomolgus adrenal gland mitochondria as the source of aldosterone synthase (CYP11B2) and cortisol synthase (CYP11B1). Mitochondria are prepared from frozen cynomolgus monkey adrenal glands according to Method A described in by J. D. McGarry et al. (Biochem. J., 1983, 214, 21-28), with a final resuspension in the AT buffer described in R. Yamaguchi et al. (Cell Death and Differentiation, 2007, 14, 616-624), frozen as aliquots in liquid nitrogen and stored at −80° C. until use. One unit of CYP11B2 and CYP11B1 activity in these preparations is defined as the amount of enzyme that generates 1 pmol of product in one hour under the conditions described.
Assays are performed as for aldosterone synthase except for the use of 150 units of CYP11B1, 11-deoxycortisol as substrate and cortisol measured as product.

[3] = cynomolgus adrenal mitochondria, read-out: Cortisol Inhibition IC50
[4] = Cortisol Inhibition IC50, cynomolgus adrenal mitochondria

SMILES | IC50 [1] [nM] | IC50 [2, 3] [nM] | IC50 [2, 4] [nM]
COC(=O)C1(C)Cc2ncn(-c3ccc(C#N)c(Cl)c3)c2C(=O)O1 (centres unmarked) [Compound 45, 3-(3-Chloro-4-cyano-phenyl)-6-methyl-4-oxo-3,4,6,7-tetrahydro-pyrano[3,4-d]imidazole-6-carboxylic acid methyl ester] | 28 |  | 1100
CC1(CO)Cc2ncn(-c3ccc(C#N)cc3)c2C(=O)O1 (centres unmarked) [Compound 37, 4-[6-(hydroxymethyl)-6-methyl-4-oxo-3H,4H,6H,7H-pyrano[3,4-d]imidazol-3-yl]benzonitrile] | 210 | 34000 | 
CC(=O)OCC1(C)Cc2ncn(-c3ccc(C#N)c(Cl)c3)c2C(=O)O1 (centres unmarked) [Compound 32, [3-(3-chloro-4-cyanophenyl)-6-methyl-4-oxo-3H,4H,6H,7H-pyrano[3,4-d]imidazol-6-yl]methyl acetate] | 36 |  | 6500
CC1(C)Cc2ncn(-c3ccc(Cl)c(Cl)c3)c2C(=O)O1 [Compound 4, 3-(3,4-dichlorophenyl)-6,6-dimethyl-3H,4H,6H,7H-pyrano[3,4-d]imidazol-4-one] | 8.4 | 1200 | 
CC1Cc2ncn(-c3ccc(C#N)c(Cl)c3)c2C(=O)O1 (single isomer, unassigned) [Compound 15B, 2-chloro-4-[6-methyl-4-oxo-3H,4H,6H,7H-pyrano[3,4-d]imidazol-3-yl]benzonitrile] | 12 |  | 6400
CC1(CO)Cc2ncn(C3Cc4ccccc4C3)c2C(=O)O1 (centres unmarked) [Compound 27, 3-(2,3-dihydro-1H-inden-2-yl)-6-(hydroxymethyl)-6-methyl-3H,4H,6H,7H-pyrano[3,4-d]imidazol-4-one] | 220 | > 30000 | 
O=C1OCCc2ncn(-c3ccc(Cl)cc3)c21 [Compound 20, 3-(4-chlorophenyl)-3H,4H,6H,7H-pyrano[3,4-d]imidazol-4-one] | 470 | 65000 | 
O=C1OCCc2ncn(-c3ccc(F)c(F)c3)c21 [Compound 24, 3-(3,4-difluorophenyl)-3H,4H,6H,7H-pyrano[3,4-d]imidazol-4-one] | 440 | 20000 | 
CC(C)(C)OC(=O)NCC1(C)Cc2ncn(-c3ccc(F)c(F)c3)c2C(=O)O1 (centres unmarked) [Compound 1, tert-butyl N{[3-(3,4-difluorophenyl)-6-methyl-4-oxo-3H,4H,6H,7H-pyrano[3,4-d]imidazol-6-yl]methyl}carbamate] | 55 | 2300 | 
CN(C)C(=O)C1(C)Cc2ncn(-c3ccc(C#N)c(Cl)c3)c2C(=O)O1 (centres unmarked) [Compound 46, 3-(3-chloro-4-cyano-phenyl)-6-methyl-4-oxo-3,4,6,7-tetrahydro-pyrano[3,4-d]imidazole-6-carboxylic acid dimethylamide] | 89 |  | 13000
CC1(C)Cc2ncn(-c3ccc(F)cc3)c2C(=O)O1 [Compound 14, 3-(4-fluorophenyl)-6,6-dimethyl-3H,4H,6H,7H-pyrano[3,4-d]imidazol-4-one] | 130 | 13000 | 
CC1(C)Cc2ncn(-c3ccc(Cl)c(C#N)c3)c2C(=O)O1 [Compound 12, 2-chloro-5-{6,6-dimethyl-4-oxo-3H,4H,6H,7H-pyrano[3,4-d]imidazol-3-yl}benzonitrile] | 290 | 24000 | 
CC1Cc2ncn(-c3ccc(Cl)c(Cl)c3)c2C(=O)O1 (centres unmarked) [Compound 41, 3-(3,4-dichlorophenyl)-6-methyl-3H,4H,6H,7H-pyrano[3,4-d]imidazol-4-one] | 8.6 | 6000 | 
O=C1OC(CO)Cc2ncn(-c3ccc(Cl)cc3)c21 (centres unmarked) [Compound 36, 3-(4-chlorophenyl)-6-(hydroxymethyl)-3H,4H,6H,7H-pyrano[3,4-d]imidazol-4-one] | 540 | > 100000 | 
CC1(C)Cc2ncn(-c3ccccc3)c2C(=O)O1 [Compound 17, 6,6-dimethyl-3-phenyl-3H,4H,6H,7H-pyrano[3,4-d]imidazol-4-one] | 390 | 61000 | 
CC1Cc2ncn(-c3ccc(C#N)c(Cl)c3)c2C(=O)O1 (single isomer, unassigned) [Compound 15A, 2-chloro-4-[6-methyl-4-oxo-3H,4H,6H,7H-pyrano[3,4-d]imidazol-3-yl]benzonitrile] | 7.5 |  | 3400
O=C1OCCc2ncn(-c3ccc(Cl)c(Cl)c3)c21 [Compound 23, 3-(3,4-dichlorophenyl)-3H,4H,6H,7H-pyrano[3,4-d]imidazol-4-one] | 14 | 10000 | 
N#Cc1ccc(-n2cnc3c2C(=O)OCC3)cc1Cl [Compound 22, 2-chloro-4-{4-oxo-3H,4H,6H,7H-pyrano[3,4-d]imidazol-3-yl}benzonitrile] | 25 |  | 18000
O=C1OCCc2ncn(C3Cc4ccccc4C3)c21 [Compound 25, 3-(2,3-dihydro-1H-inden-2-yl)-3H,4H,6H,7H-pyrano[3,4-d]imidazol-4-one] | 500 |  | > 30000
CC1(C)Cc2ncn(C3Cc4ccccc4C3)c2C(=O)O1 [Compound 26] | 64 | 25000 | 
CC1(C)Cc2ncn(-c3cccc(F)c3Cl)c2C(=O)O1 [Compound 7, 3-(2-chloro-3-fluorophenyl)-6,6-dimethyl-3H,4H,6H,7H-pyrano[3,4-d]imidazol-4-one] | 50 | 6800 | 
N#Cc1ccc(-n2cnc3c2C(=O)OCC3)cc1 [Compound 21, 4-{4-oxo-3H,4H,6H,7H-pyrano[3,4-d]imidazol-3-yl}benzonitrile] | 420 | 82000 | 

The next lines start with results.

IC50 [1] [nM] | IC50 [2, 3] [nM] | SMILES | IC50 [2, 4] [nM]
120 | 19000 | CC1(CO)Cc2ncn(-c3ccc(Cl)cc3)c2C(=O)O1 (single isomer, unassigned) [Compound 38A, 3-(4-chlorophenyl)-6-(hydroxymethyl)-6-methyl-3H,4H,6H,7H-pyrano[3,4-d]imidazol-4-one] | 
620 | > 30000 | CC1(CO)Cc2ncn(-c3cccc(Cl)c3F)c2C(=O)O1 (single isomer, unassigned) [Compound 35B, 3-(3-chloro-2-fluorophenyl)-6-(hydroxymethyl)-6-methyl-3H,4H,6H,7H-pyrano[3,4-d]imidazol-4-one] | 
160 | > 30000 | CN1C(=O)CCc2cc(-n3cnc4c3C(=O)OC(C)(CO)C4)ccc21 (single isomer, unassigned) [Compound 40A, 6-[6-(hydroxymethyl)-6-methyl-4-oxo-3H,4H,6H,7H-pyrano[3,4-d]imidazol-3-yl]-1-methyl-1,2,3,4-tetrahydroquinolin-2-one] | 
390 | 36000 | CC1(CO)Cc2ncn(-c3ccc(Cl)cc3)c2C(=O)O1 (single isomer, unassigned) [Compound 38B, 3-(4-chlorophenyl)-6-(hydroxymethyl)-6-methyl-3H,4H,6H,7H-pyrano[3,4-d]imidazol-4-one] | 
870 | > 30000 | CC1(CO)Cc2ncn(-c3cccc(F)c3Cl)c2C(=O)O1 (single isomer, unassigned) [Compound 34A, 3-(2-chloro-3-fluorophenyl)-6-(hydroxymethyl)-6-methyl-3H,4H,6H,7H-pyrano[3,4-d]imidazol-4-one] | 
210 | > 30000 | CC1(CO)Cc2ncn(-c3ccc4c(c3)CCO4)c2C(=O)O1 (single isomer, unassigned) [Compound 42A, 3-(2,3-Dihydro-benzofuran-5-yl)-6-hydroxymethyl-6-methyl-6,7-dihydro-3H-pyrano[3,4-d]imidazol-4-one] | 

— US9334285B2, “Aldosterone synthase inhibitors” (Boehringer Ingelheim International GmbH, priority 2014, dated 2016)
